Laboratory results published in patent US11814367B2, “Inhibitors of glycogen synthase 1 (GYS1) and methods of use thereof” (Maze Therapeutics, Inc., priority 2021, dated 2023).

Experiments:
[1] = biological target: hGYS1 enzyme (recombinant hGYS1/GN1 protein) (Homo sapiens (Human), UniProt P13807); assay: GYS1 coupled enzyme assay (PK/LDH); assay type: biochemical; settings: hGYS1/GN1 50 nM, UDP-Glucose 0.8 mM, G6P 1 mM; geometric mean of at least 2 runs
[2] = biological target: hGYS2 enzyme (recombinant hGYS2/GN1 protein) (Homo sapiens (Human), UniProt P54840); assay: GYS2 coupled enzyme assay (PK/LDH); assay type: biochemical; settings: geometric mean of at least 2 assay runs on separate days, read-out: Avg_IC50
How it was run: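 IC50 came from Hill fits of duplicate percent inhibition, based on control-normalized slopes of 340 nm NADH decline read each minute for 10 min. The reaction held recombinant hGYS2/GN1 (200 nM) with glycogen, UDP-glucose, G6P and PEP, plus PK/LDH coupling at pH 7.5 and 2.5% DMSO.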

hGYS2 enzyme (recombinant hGYS2/GN1 protein), sequence (P54840 whole entry): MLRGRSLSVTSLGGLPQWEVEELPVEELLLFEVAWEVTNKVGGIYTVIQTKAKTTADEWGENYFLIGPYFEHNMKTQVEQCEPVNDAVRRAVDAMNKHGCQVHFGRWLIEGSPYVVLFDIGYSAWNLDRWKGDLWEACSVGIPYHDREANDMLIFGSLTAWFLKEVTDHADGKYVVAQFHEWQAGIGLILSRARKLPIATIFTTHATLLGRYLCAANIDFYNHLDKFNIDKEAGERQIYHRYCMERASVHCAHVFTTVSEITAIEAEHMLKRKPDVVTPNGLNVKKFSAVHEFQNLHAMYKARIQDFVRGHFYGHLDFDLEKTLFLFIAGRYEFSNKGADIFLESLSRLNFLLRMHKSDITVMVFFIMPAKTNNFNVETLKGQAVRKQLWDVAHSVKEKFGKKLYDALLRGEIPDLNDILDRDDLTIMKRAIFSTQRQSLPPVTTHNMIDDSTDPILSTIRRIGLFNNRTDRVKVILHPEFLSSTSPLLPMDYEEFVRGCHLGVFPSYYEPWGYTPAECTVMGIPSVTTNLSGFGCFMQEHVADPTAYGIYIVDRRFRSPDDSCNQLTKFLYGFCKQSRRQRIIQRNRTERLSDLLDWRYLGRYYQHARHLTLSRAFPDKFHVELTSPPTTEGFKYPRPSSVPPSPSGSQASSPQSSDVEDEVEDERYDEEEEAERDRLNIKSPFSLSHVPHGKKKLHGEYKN
hGYS2 enzyme (recombinant hGYS2/GN1 protein), sequence (P46976 whole entry partner): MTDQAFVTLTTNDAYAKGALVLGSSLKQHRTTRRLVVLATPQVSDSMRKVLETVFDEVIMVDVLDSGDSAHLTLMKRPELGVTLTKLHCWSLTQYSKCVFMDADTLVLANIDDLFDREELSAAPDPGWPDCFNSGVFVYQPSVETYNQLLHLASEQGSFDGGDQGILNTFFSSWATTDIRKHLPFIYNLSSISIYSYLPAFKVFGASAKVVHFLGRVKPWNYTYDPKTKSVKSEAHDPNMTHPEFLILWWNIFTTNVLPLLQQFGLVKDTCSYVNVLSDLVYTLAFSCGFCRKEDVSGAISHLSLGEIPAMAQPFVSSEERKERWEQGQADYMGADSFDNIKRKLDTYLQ
hGYS1 enzyme (recombinant hGYS1/GN1 protein), sequence (P13807 whole entry): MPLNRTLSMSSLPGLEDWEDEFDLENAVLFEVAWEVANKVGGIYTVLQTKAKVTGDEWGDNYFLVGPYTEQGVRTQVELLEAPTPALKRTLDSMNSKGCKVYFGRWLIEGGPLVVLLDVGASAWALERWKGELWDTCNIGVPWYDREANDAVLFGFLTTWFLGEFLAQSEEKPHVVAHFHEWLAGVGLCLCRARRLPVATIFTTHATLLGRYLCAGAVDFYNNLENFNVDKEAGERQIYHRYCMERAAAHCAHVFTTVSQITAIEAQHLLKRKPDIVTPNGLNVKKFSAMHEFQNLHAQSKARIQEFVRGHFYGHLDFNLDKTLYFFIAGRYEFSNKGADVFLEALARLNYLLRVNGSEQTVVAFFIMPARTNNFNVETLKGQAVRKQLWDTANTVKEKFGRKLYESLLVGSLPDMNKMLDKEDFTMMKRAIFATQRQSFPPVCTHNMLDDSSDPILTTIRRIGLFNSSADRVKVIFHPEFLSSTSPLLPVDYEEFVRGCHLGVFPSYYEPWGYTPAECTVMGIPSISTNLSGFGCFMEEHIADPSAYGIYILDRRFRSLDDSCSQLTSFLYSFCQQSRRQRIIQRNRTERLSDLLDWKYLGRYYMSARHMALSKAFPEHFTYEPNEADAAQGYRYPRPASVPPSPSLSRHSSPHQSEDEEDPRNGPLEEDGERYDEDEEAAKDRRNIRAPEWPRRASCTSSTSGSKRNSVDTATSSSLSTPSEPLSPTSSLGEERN
hGYS1 enzyme (recombinant hGYS1/GN1 protein), sequence (P46976 whole entry partner): as the sequence (P46976 whole entry partner) above

Row | SMILES | IC50 [1] | IC50 [2]
1 | CC(C)c1ccc([C@@H](NC(=O)[C@@H]2C[C@@H](F)CN2C(=O)CCc2cnccn2)c2ccccc2)cc1 [Compound 59, (2S,4R)-4-fluoro-N-[(S)-phenyl[4-(propan-2-yl)phenyl]methyl]-1-[3-(pyrazin-2-yl)propanoyl]pyrrolidine-2-carboxamide] | 85 nM | > 100000 nM
2 | CC(C)c1ccc([C@@H](NC(=O)[C@@H]2C[C@@H](F)CN2C(=O)Cc2cnccn2)c2ccccc2)cc1 [Compound 26, (2S,4R)-4-fluoro-N-[(S)-phenyl[4-(propan-2-yl)phenyl]methyl]-1-[2-(pyrazin-2-yl)acetyl]pyrrolidine-2-carboxamide] | 36 nM | > 100000 nM
3 | CC(C)c1ccc([C@@H](NC(=O)[C@@H]2C[C@@H](F)CN2C(=O)Cc2cscn2)c2ccccc2)cc1 [Compound 15, (2S,4R)-4-fluoro-N-[(S)-phenyl[4-(propan-2-yl)phenyl]methyl]-1-[2-(1,3-thiazol-4-yl)acetyl]pyrrolidine-2-carboxamide] | 48 nM | > 100000 nM
4 | Cc1ncccc1CCC(=O)N1C[C@H](F)C[C@H]1C(=O)N[C@@H](c1ccccc1)c1ccc(C(C)C)cc1 [Compound 102, (2S,4R)-4-fluoro-1-[3-(2-methylpyridin-3-yl)propanoyl]-N-[(S)-phenyl[4-(propan-2-yl)phenyl]methyl]pyrrolidine-2-carboxamide] | 58 nM | > 100000 nM
5 | Cc1noc(C)c1CCC(=O)N1C[C@H](F)C[C@H]1C(=O)N[C@@H](c1ccccc1)c1ccc(C(C)C)cc1 [Compound 103, (2S,4R)-1-[3-(3,5-dimethyl-1,2-oxazol-4-yl)propanoyl]-4-fluoro-N-[(S)-phenyl[4-(propan-2-yl)phenyl]methyl]pyrrolidine-2-carboxamide] | 162 nM | > 100000 nM
6 | CC(C)c1ccc([C@@H](NC(=O)[C@@H]2C[C@@H](F)CN2C(=O)Cn2nnc3ccccc32)c2ccccc2)cc1 [Compound 68, (2S,4R)-1-[2-(1H-1,2,3-benzotriazol-1-yl)acetyl]-4-fluoro-N-[(S)-phenyl[4-(propan-2-yl)phenyl]methyl]pyrrolidine-2-carboxamide] | 34 nM | > 100000 nM
7 | CC(=O)N1CC(C)(CC(=O)N2C[C@H](F)C[C@H]2C(=O)N[C@@H](c2ccccc2)c2ccc(C(C)C)cc2)C1 [Compound 154, (2S,4R)-1-[2-(1-acetyl-3-methylazetidin-3-yl)acetyl]-4-fluoro-N-[(S)-phenyl[4-(propan-2-yl)phenyl]methyl]pyrrolidine-2-carboxamide] | 285 nM | > 100000 nM
8 | CC(=O)N[C@H](CCC(=O)O)C(=O)N1C[C@H](F)C[C@H]1C(=O)N[C@@H](c1ccccc1)c1ccc(C(C)C)cc1 [Compound 197, (4R)-4-acetamido-5-[(2S,4R)-4-fluoro-2-{[(S)-phenyl[4-(propan-2-yl)phenyl]methyl]carbamoyl}pyrrolidin-1-yl]-5-oxopentanoic acid] | 128 nM | > 100000 nM
9 | CC(C)c1ccc([C@@H](NC(=O)[C@@H]2CCCN2C(=O)Cc2ncco2)c2ccccc2)cc1 [Compound 216, (2S)-1-[2-(1,3-oxazol-2-yl)acetyl]-N-[(S)-phenyl[4-(propan-2-yl)phenyl]methyl]pyrrolidine-2-carboxamide] | 247 nM | > 100000 nM
10 | CC(C)c1ccc([C@@H](NC(=O)[C@@H]2C[C@@H](F)CN2C(=O)Cc2cc(F)ccc2Cl)c2ccccc2)cc1 [Compound 63, (2S,4R)-1-[2-(2-chloro-5-fluorophenyl]acetyl]-4-fluoro-N-[(S)-phenyl[4-(propan-2-yl)phenyl]methyl]pyrrolidine-2-carboxamide] | 15 nM | > 100000 nM
11 | CN(C)C(=O)NCC(=O)N1C[C@H](F)C[C@H]1C(=O)N[C@@H](c1ccccc1)c1ccc(C2CC2)c(F)c1 [Compound 441, (2S,4R)-N-[(S)-(4-cyclopropyl-3-fluorophenyl)(phenyl)methyl]-1-{2-[(dimethylcarbamoyl)amino]acetyl}-4-fluoropyrrolidine-2-carboxamide] | 51 nM | > 100000 nM
